Laboratory results: publication PMC10348020, “Carbonic anhydrase inhibitory activity of phthalimide-capped benzene sulphonamide derivatives” (Journal of Enzyme Inhibition and Medicinal Chemistry, 2023)
“Also recorded” adds a separate entry of the source.

How the values were obtained:
[1] = molecular target: T1, hCA I (Homo sapiens, UniProt P00915); experiment: stopped-flow CO2 hydrase assay, hCA I; assay type: biochemical; conditions: for Ki: stopped-flow CO2 hydrase assay, mean from three different assays, errors ± 5–10%; for hCA I inhibition (in words): stopped-flow assay
T1 construct: hCA isoenzymes I and II used in these experiments were obtained, as earlier reported by our groups
Method: (§1) The CA isoenzyme assay was performed using a stopped-flow Applied Photophysics (SX.18V-R; Oxford, UK) instrument using Khalifah’s technique. hCA isoenzymes I and II used in these experiments were obtained, as earlier reported by our groups.

[2] = molecular target: T2, hCA II (Homo sapiens, UniProt P00918); experiment: stopped-flow CO2 hydrase assay, hCA II; assay type: biochemical; conditions: for Ki: stopped-flow CO2 hydrase assay, mean from three different assays, errors ± 5–10%; for hCA II inhibition (in words): stopped-flow assay
T2 construct: hCA isoenzymes I and II used in these experiments were obtained, as earlier reported by our groups
Method: as §1

[3] = system: dengue viral protease; parameters: method as in PMID 26247308; conditions: previously reported by the group; cited from earlier work

T1 sequence (P00915 whole entry): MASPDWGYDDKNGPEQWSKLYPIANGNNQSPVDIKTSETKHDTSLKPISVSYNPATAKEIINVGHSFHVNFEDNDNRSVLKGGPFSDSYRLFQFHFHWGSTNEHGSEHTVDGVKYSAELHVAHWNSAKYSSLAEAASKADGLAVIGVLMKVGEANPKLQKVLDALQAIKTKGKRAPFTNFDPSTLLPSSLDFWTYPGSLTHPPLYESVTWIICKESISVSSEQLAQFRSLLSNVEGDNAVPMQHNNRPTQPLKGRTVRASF

Ki [1] [µM]	Ki [2] [µM]	Compound	dengue viral protease inhibition (in words) [3]	hCA I inhibition (in words) [1]	hCA II inhibition (in words) [2]
> 10	> 10	O=C1c2ccccc2C(=O)N1c1ccc(S(=O)(=O)Nc2ccccc2Cl)cc1 [Compound 13]	–	–	–
5.52	8.87	O=C1c2ccccc2C(=O)N1c1ccc(S(=O)(=O)Nc2ccccc2O)cc1 [Compound 10]	–	showed hCA I inhibition; also recorded: inhibited hCA I	showed hCA II inhibition at nanomolar concentrations; also recorded: inhibited hCA II
> 10	> 10	O=C1c2ccccc2C(=O)N1c1ccc(S(=O)(=O)Nc2cccc([N+](=O)[O-])c2)cc1 [Compound 20]	–	–	–
7.35	–	O=C1c2ccccc2C(=O)N1c1ccc(S(=O)(=O)NCCc2ccccc2)cc1 [Compound 3]	–	showed hCA I inhibition; also recorded: inhibited hCA I	–
> 10	> 10	COc1cccc(NS(=O)(=O)c2ccc(N3C(=O)c4ccccc4C3=O)cc2)c1 [Compound 11]	–	–	–
> 10	> 10	O=C1c2ccccc2C(=O)N1c1ccc(S(=O)(=O)Nc2cccc(Cl)c2)cc1 [Compound 14]	–	–	–
> 10	> 10	Cc1cccc(NS(=O)(=O)c2ccc(N3C(=O)c4ccccc4C3=O)cc2)c1 [Compound 17]	–	–	–
> 10	> 10	O=C1c2ccccc2C(=O)N1c1ccc(S(=O)(=O)Nc2ccc([N+](=O)[O-])cc2)cc1 [Compound 21]	–	–	–
> 10	> 10	O=C1c2ccccc2C(=O)N1c1ccc(S(=O)(=O)Nc2ccccc2)cc1 [Compound 9]	–	–	–

The next lines start with the compound.

Compound	Ki [1] [µM]	Ki [2] [µM]	dengue viral protease inhibition (in words) [3]	hCA I inhibition (in words) [1]	hCA II inhibition (in words) [2]
CCc1ccc(NS(=O)(=O)c2ccc(N3C(=O)c4ccccc4C3=O)cc2)cc1 [Compound 19]	> 10	> 10	potent dengue protease inhibitor	inactive	inactive
COc1ccc(NS(=O)(=O)c2ccc(N3C(=O)c4ccccc4C3=O)cc2)cc1 [Compound 12]	> 10	> 10	–	–	–
CC(C)NS(=O)(=O)c1ccc(N2C(=O)c3ccccc3C2=O)cc1 [Compound 2]	> 10	> 10	–	–	–
Cc1ccc(NS(=O)(=O)c2ccc(N3C(=O)c4ccccc4C3=O)cc2)cc1 [Compound 18]	> 10	> 10	–	–	–
CN(C)S(=O)(=O)c1ccc(N2C(=O)c3ccccc3C2=O)cc1 [Compound 4]	> 10	9.06	–	–	showed hCA II inhibition at nanomolar concentrations; also recorded: inhibited hCA II
Cc1ccccc1NS(=O)(=O)c1ccc(N2C(=O)c3ccccc3C2=O)cc1 [Compound 16]	> 10	> 10	–	–	–
CCN(CC)S(=O)(=O)c1ccc(N2C(=O)c3ccccc3C2=O)cc1 [Compound 5]	> 10	> 10	–	–	–
NS(=O)(=O)c1ccc(N2C(=O)c3ccccc3C2=O)cc1 [Compound 1]	–	–	inactive	–	–
O=C1c2ccccc2C(=O)N1c1ccc(S(=O)(=O)N2CCCCC2)cc1 [Compound 7]	> 10	> 10	–	–	–
CN1CCN(S(=O)(=O)c2ccc(N3C(=O)c4ccccc4C3=O)cc2)CC1 [Compound 8]	> 10	> 10	–	–	–
O=C1c2ccccc2C(=O)N1c1ccc(S(=O)(=O)N(c2ccccc2)c2ccccc2)cc1 [Compound 6]	> 10	> 10	–	–	–
O=C(O)c1ccc(NS(=O)(=O)c2ccc(N3C(=O)c4ccccc4C3=O)cc2)cc1 [Compound 22]	> 10	> 10	–	–	–
O=C1c2ccccc2C(=O)N1c1ccc(S(=O)(=O)Nc2ccc(Cl)cc2)cc1 [Compound 15]	7.5	> 10	–	showed hCA I inhibition; also recorded: inhibited hCA I	–
